Results as given in patent US20220281848A1, “PYRAZOLE-SUBSTITUTED PYRROLIDINONES AS HERBICIDES” (FMC Corporation, priority 2019, published 2022).

Tested on: plants
Assay: Test D pre-emergence, other plants of Tables D1 and D3
Format: in vivo
Conditions: 20 DAA; for damage to plant (100=total damage to plant; 0=no damage to plant), BIDPI / damage to plant (100=total damage to plant; 0=no damage to plant), BRAPL / damage to plant (100=total damage to plant; 0=no damage to plant), CYPES / damage to plant (100=total damage to plant; 0=no damage to plant), EPHHL / damage to plant (100=total damage to plant; 0=no damage to plant), GLXMA / damage to plant (100=total damage to plant; 0=no damage to plant), IPOHE / damage to plant (100=total damage to plant; 0=no damage to plant), SORVU: preemergent; for CHEAL damage rating / GALAP damage rating / KCHSC damage rating / LOLPE damage rating / POAAN damage rating / STEME damage rating / VERPE damage rating: pre-emergence, 100=total damage, 0=no damage
Procedure: A formulation containing 50 g/L of the test chemical was prepared by dissolving the active ingredient in a mixture of organic solvents and emulsifier, details of which are provided in the table. This formulation was then mixed with a small, variable amount of acetone to aid dissolution, before addition of a 0.2% v/v aqueous solution of an adjuvant, as the aqueous diluent, to form an aqueous spray solution which contains a predetermined concentration of the active ingredient.
This aqueous spray solution was then sprayed onto plants including maize and wheat that had been seed treated with a herbicide safener, after one day's cultivation (for pre-emergence) or after about 12 days' cultivation (for post-emergence). The plants were grown from seeds sown in standard soil, placed in a glasshouse under controlled conditions (at 24/18° C. or 20/16° C., day/night; 16 h light; 65% humidity). After spray application the plants were then grown in a glasshouse under the same conditions and watered twice daily. After 15 d for post-emergence and 20 DAA for pre-emergence the test was evaluated (100=total damage to plant; 0=no damage to plant).

CN1CC(c2cc(C(F)(F)F)n(C)n2)C(C(=O)Nc2ccc(F)cc2C(C)(F)F)C1=O (racemic) [Compound 26]
damage to plant (100=total damage to plant; 0=no damage to plant), BIDPI (rate 15): 0
damage to plant (100=total damage to plant; 0=no damage to plant), BIDPI (rate 30): 0
damage to plant (100=total damage to plant; 0=no damage to plant), BIDPI (rate 60): 0
damage to plant (100=total damage to plant; 0=no damage to plant), BIDPI (rate 130): 0
damage to plant (100=total damage to plant; 0=no damage to plant), BIDPI (rate 250): 0
damage to plant (100=total damage to plant; 0=no damage to plant), BIDPI (rate 500): 0
damage to plant (100=total damage to plant; 0=no damage to plant), BRAPL (rate 15): 0
damage to plant (100=total damage to plant; 0=no damage to plant), BRAPL (rate 30): 70
damage to plant (100=total damage to plant; 0=no damage to plant), BRAPL (rate 60): 80
damage to plant (100=total damage to plant; 0=no damage to plant), BRAPL (rate 130): 80
damage to plant (100=total damage to plant; 0=no damage to plant), BRAPL (rate 250): 80
damage to plant (100=total damage to plant; 0=no damage to plant), BRAPL (rate 500): 80
CHEAL damage rating (Rates 15): 0
CHEAL damage rating (Rates 30): 0
CHEAL damage rating (Rates 60): 0
CHEAL damage rating (Rates 130): 0
CHEAL damage rating (Rates 250): 10
CHEAL damage rating (Rates 500): 10
damage to plant (100=total damage to plant; 0=no damage to plant), CYPES (rate 15): 0
damage to plant (100=total damage to plant; 0=no damage to plant), CYPES (rate 30): 0
damage to plant (100=total damage to plant; 0=no damage to plant), CYPES (rate 60): 0
damage to plant (100=total damage to plant; 0=no damage to plant), CYPES (rate 130): 0
damage to plant (100=total damage to plant; 0=no damage to plant), CYPES (rate 250): 0
damage to plant (100=total damage to plant; 0=no damage to plant), CYPES (rate 500): 10
damage to plant (100=total damage to plant; 0=no damage to plant), EPHHL (rate 15): 0
damage to plant (100=total damage to plant; 0=no damage to plant), EPHHL (rate 30): 0
damage to plant (100=total damage to plant; 0=no damage to plant), EPHHL (rate 60): 0
damage to plant (100=total damage to plant; 0=no damage to plant), EPHHL (rate 130): 0
damage to plant (100=total damage to plant; 0=no damage to plant), EPHHL (rate 250): 0
damage to plant (100=total damage to plant; 0=no damage to plant), EPHHL (rate 500): 0
GALAP damage rating (Rates 15): 0
GALAP damage rating (Rates 30): 0
GALAP damage rating (Rates 60): 0
GALAP damage rating (Rates 130): 0
GALAP damage rating (Rates 250): 0
GALAP damage rating (Rates 500): 20
damage to plant (100=total damage to plant; 0=no damage to plant), GLXMA (rate 15): 0
damage to plant (100=total damage to plant; 0=no damage to plant), GLXMA (rate 30): 0
damage to plant (100=total damage to plant; 0=no damage to plant), GLXMA (rate 60): 0
damage to plant (100=total damage to plant; 0=no damage to plant), GLXMA (rate 130): 0
damage to plant (100=total damage to plant; 0=no damage to plant), GLXMA (rate 250): 0
damage to plant (100=total damage to plant; 0=no damage to plant), GLXMA (rate 500): 0
damage to plant (100=total damage to plant; 0=no damage to plant), IPOHE (rate 15): 0
damage to plant (100=total damage to plant; 0=no damage to plant), IPOHE (rate 30): 0
damage to plant (100=total damage to plant; 0=no damage to plant), IPOHE (rate 60): 0
damage to plant (100=total damage to plant; 0=no damage to plant), IPOHE (rate 130): 0
damage to plant (100=total damage to plant; 0=no damage to plant), IPOHE (rate 250): 0
damage to plant (100=total damage to plant; 0=no damage to plant), IPOHE (rate 500): 0
KCHSC damage rating (Rates 15): 0
KCHSC damage rating (Rates 30): 0
KCHSC damage rating (Rates 60): 0
KCHSC damage rating (Rates 130): 0
KCHSC damage rating (Rates 250): 0
KCHSC damage rating (Rates 500): 0
LOLPE damage rating (Rates 15): 0
LOLPE damage rating (Rates 30): 0
LOLPE damage rating (Rates 60): 0
LOLPE damage rating (Rates 130): 30
LOLPE damage rating (Rates 250): 90
LOLPE damage rating (Rates 500): 90
POAAN damage rating (Rates 15): 0
POAAN damage rating (Rates 30): 0
POAAN damage rating (Rates 60): 0
POAAN damage rating (Rates 130): 30
POAAN damage rating (Rates 250): 60
POAAN damage rating (Rates 500): 100
damage to plant (100=total damage to plant; 0=no damage to plant), SORVU (rate 15): 0
damage to plant (100=total damage to plant; 0=no damage to plant), SORVU (rate 30): 0
damage to plant (100=total damage to plant; 0=no damage to plant), SORVU (rate 60): 0
damage to plant (100=total damage to plant; 0=no damage to plant), SORVU (rate 130): 0
damage to plant (100=total damage to plant; 0=no damage to plant), SORVU (rate 250): 0
damage to plant (100=total damage to plant; 0=no damage to plant), SORVU (rate 500): 0
STEME damage rating (Rates 15): 0
STEME damage rating (Rates 30): 0
STEME damage rating (Rates 60): 0
STEME damage rating (Rates 130): 10
STEME damage rating (Rates 250): 40
STEME damage rating (Rates 500): 70
VERPE damage rating (Rates 15): 0
VERPE damage rating (Rates 30): 0
VERPE damage rating (Rates 60): 0
VERPE damage rating (Rates 130): 0
VERPE damage rating (Rates 250): 10
